Data on 13 compounds can be found in patent publication US11655235B2, “Pyrrolidine and piperidine compounds” (YUHAN CORPORATION, priority 2019, dated 2023).

Common to all, as to format: biochemical
In assay [1] the target is T1, recombinant human PREP (Homo sapiens, UniProt P48147).
T1 construct: purchased R&D System
T1 sequence (P48147 1-710): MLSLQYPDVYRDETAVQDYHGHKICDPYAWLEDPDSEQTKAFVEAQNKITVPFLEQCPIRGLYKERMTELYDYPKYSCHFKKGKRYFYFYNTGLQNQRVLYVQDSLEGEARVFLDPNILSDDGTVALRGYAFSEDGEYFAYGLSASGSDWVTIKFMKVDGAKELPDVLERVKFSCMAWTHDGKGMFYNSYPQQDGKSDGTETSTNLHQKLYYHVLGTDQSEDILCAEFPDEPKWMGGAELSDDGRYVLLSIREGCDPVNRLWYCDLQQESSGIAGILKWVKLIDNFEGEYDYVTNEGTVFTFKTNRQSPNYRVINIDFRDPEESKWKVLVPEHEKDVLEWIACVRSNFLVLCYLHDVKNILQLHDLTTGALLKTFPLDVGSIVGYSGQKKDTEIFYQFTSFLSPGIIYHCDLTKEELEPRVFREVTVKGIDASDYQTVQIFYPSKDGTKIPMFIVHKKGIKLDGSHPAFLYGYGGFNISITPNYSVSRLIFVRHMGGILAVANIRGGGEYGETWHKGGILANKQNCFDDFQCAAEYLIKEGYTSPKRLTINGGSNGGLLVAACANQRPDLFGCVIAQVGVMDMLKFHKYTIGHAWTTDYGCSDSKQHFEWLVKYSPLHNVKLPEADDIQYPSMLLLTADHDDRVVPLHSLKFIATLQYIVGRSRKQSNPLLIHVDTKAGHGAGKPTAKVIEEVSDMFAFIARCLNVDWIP
The experiment in a line: PREP inhibition, fluorogenic substrate Z-Gly-Pro-AMC. The following applies: Inhibitory Activity (IC50, nM) PREP, recombinant human PREP. In a few lines:
(§1)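 Enzyme per reaction: 50 ng DPP9, 20 ng DPP8, 10 ng each DPP7 and PREP. Compounds were serially diluted (8 points, up to 0.5% DMSO) and incubated at 25 °C.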

For assay [2], the target named is T2, recombinant human DPP7 (Homo sapiens, UniProt Q9UHL4).
T2 construct: purchased R&D Systems
The assay can be described thus: DPP7 inhibition, fluorogenic substrate Lys-Pro-AMC. The following applies: recombinant human DPP7. In short, it runs like this: as §1

Assay [3] addresses DPP4 (Homo sapiens, UniProt P27487). The experiment in a line: DPP4 inhibition, fluorogenic substrate H-Gly-Pro-AMC. Also noted: purchased R&D Systems. Conditions: recombinant human DPP4.
Assay [4] deals with T3, recombinant human DPP9 (Homo sapiens, UniProt Q86TI2).
T3 construct: purchased R&D Systems
T3 sequence (Q86TI2 whole entry): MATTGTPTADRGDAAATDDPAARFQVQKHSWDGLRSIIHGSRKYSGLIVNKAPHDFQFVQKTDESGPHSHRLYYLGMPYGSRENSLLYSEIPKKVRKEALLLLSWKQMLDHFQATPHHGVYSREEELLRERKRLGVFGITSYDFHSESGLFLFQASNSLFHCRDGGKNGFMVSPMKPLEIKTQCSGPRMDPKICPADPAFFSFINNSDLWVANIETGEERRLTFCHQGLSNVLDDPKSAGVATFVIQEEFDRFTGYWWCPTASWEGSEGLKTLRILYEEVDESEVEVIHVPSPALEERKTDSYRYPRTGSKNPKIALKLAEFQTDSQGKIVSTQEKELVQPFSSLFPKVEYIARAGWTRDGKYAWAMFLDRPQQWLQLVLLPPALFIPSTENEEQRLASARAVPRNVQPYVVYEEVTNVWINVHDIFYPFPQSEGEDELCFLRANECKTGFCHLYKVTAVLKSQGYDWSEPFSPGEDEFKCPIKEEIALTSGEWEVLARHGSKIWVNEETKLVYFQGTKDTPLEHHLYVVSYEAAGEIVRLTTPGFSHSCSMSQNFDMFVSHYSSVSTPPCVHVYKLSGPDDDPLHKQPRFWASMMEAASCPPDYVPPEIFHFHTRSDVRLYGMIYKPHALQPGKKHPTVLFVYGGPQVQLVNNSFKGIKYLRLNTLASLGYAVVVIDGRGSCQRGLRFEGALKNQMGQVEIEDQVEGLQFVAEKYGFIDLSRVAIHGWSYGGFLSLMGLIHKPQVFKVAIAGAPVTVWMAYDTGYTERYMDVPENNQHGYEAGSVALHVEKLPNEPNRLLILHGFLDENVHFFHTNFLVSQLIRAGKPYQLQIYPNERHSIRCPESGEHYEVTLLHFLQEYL
The experiment in a line: DPP9 inhibition, fluorogenic substrate H-Gly-Pro-AMC. Conditions: recombinant human DPP9. In short, it runs like this: as §1

Assay [5] has as its target T4, Recombinant human FAP (Homo sapiens, UniProt Q12884).
T4 construct: purchased R&D systems
T4 sequence (Q12884 1-760): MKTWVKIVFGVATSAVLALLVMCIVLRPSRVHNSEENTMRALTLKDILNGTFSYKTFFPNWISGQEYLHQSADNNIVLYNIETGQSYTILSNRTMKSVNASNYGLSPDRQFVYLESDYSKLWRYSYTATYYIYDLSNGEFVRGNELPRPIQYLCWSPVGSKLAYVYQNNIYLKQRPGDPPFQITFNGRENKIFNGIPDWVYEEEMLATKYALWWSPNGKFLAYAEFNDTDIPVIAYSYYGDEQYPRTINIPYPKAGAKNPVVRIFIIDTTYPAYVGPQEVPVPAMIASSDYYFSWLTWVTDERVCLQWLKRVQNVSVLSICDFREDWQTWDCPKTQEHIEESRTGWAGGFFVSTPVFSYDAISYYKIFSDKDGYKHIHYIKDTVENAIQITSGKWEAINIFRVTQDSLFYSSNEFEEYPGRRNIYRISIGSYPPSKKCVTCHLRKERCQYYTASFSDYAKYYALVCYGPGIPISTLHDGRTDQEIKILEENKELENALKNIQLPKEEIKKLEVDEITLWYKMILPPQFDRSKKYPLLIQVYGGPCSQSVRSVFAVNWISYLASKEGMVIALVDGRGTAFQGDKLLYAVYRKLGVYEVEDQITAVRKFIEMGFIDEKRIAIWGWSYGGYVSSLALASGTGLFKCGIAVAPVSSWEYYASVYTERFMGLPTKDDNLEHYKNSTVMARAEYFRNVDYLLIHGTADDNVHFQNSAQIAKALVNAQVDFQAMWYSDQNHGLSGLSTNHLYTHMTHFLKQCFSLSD
The assay can be described thus: FAP FRET assay, FGF21-sequence FRET peptide substrate. The following applies: FRET peptide with human FGF21 sequence, 6 μM, 37° C. In a few lines:
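Recombinant human FAP, 10 ng per reaction, in 50 mM HEPES pH 7.2 with 150 mM NaCl, 0.1 mg/ml BSA, 1 mM EDTA; HyLite Fluor 488/QXL 520 FRET peptide of human FGF21 sequence at 6 μM final, ≤0.1% DMSO, 37° C. IC50 from 8-point curves by four-parameter logistic fit.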

Assay [6] deals with T5, recombinant human DPP8 (Homo sapiens, UniProt Q6V1X1).
T5 construct: purchased PBS Bioscience
T5 sequence (Q6V1X1 whole entry): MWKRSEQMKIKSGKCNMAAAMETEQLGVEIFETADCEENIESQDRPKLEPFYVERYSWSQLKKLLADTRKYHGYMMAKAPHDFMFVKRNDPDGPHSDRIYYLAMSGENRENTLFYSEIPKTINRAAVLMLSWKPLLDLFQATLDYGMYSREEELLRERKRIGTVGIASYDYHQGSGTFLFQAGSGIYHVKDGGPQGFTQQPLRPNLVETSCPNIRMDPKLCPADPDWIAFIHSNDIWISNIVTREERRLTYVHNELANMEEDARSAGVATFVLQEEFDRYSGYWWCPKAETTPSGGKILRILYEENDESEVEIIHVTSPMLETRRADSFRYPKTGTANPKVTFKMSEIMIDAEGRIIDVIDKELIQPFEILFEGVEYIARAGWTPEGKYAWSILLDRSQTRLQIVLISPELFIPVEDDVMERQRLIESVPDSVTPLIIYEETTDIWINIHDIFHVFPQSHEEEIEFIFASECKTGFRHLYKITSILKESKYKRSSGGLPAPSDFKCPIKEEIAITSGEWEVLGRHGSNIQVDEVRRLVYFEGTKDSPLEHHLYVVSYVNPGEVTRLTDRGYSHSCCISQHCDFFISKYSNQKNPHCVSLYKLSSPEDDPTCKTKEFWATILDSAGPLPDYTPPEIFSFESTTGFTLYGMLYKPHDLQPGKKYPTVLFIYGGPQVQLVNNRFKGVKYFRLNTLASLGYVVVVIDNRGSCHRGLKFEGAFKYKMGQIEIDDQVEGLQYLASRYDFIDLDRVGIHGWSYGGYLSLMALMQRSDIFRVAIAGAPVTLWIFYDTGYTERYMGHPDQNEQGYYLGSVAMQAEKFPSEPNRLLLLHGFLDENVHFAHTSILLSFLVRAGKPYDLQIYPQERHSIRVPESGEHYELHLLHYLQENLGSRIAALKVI
The experiment in a line: DPP8 inhibition, fluorogenic substrate Z-Ala-Pro-AMC. The following applies: recombinant human DPP8. In a few lines:
as §1

The target of assay [7] is T4, Recombinant human FAP. The assay can be described thus: FAP inhibition, fluorogenic substrate Z-Gly-Pro-AMC. Conditions: recombinant human FAP, substrate Z-Gly-Pro-AMC. In short, it runs like this:
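Recombinant human FAP, 10 ng per reaction, in 50 mM Tris pH 7.5 with 1 M NaCl and 1 mg/ml BSA at 25° C; substrate Z-Gly-Pro-AMC, ≤0.1% DMSO. AMC fluorescence read at ex 380/em 460 nm; % signal-rate decrease vs no-inhibitor control, 8-point curves fitted to a four-parameter logistic for IC50.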

DPP4, sequence (P27487 whole entry): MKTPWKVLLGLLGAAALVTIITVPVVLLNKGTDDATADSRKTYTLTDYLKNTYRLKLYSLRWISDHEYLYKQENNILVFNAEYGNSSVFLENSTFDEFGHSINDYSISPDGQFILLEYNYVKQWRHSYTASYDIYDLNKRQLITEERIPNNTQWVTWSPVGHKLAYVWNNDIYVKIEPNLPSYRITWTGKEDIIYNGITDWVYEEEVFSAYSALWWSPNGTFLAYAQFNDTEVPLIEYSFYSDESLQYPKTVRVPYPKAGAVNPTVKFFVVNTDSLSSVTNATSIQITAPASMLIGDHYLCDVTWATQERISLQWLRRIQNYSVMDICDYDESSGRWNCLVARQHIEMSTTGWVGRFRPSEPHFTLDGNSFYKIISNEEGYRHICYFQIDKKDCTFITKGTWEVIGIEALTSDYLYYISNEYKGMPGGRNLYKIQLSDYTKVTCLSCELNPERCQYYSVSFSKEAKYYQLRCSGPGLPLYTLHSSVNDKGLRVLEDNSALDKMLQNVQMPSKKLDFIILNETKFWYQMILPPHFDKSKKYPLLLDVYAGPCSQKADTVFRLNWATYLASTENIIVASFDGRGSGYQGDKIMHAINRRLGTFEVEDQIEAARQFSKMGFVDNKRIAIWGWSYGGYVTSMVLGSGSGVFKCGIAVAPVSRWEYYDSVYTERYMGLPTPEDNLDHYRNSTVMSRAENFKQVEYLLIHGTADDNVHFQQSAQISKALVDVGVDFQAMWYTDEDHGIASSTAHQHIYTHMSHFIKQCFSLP

The term IC50 denotes the point on the concentration scale where inhibition reaches its midpoint. Turning to `Cc1cnc2cccc(N(C)[C@H]3CCN(CC(=O)N4C[C@@H](F)C[C@H]4C#N)C3)c2c1` [Example 155, (2S,4S)-4-fluoro-1-[2-[(3S)-3-[methyl-(3-methyl-5-quinolyl)amino]pyrrolidin-1-yl]acetyl]pyrrolidine-2-carbonitrile], the IC50 in assay [1] is 2540 nM; in assay [2], 2900 nM; in assay [3] it was 1850 nM; in assay [4], 5720 nM; in assay [5] it was 2.4 nM; in assay [6] it was 9850 nM.
On to `CN(c1cccc2ncc(F)cc12)[C@H]1CCN(CC(=O)N2C[C@@H](F)C[C@H]2C#N)C1` [Example 156, (2S,4S)-4-fluoro-1-(2-((S)-3-((3-fluoroquinolin-5-yl)(methyl)amino)pyrrolidin-1-yl)acetyl)pyrrolidine-2-carbonitrile], for which the IC50 in assay [1] was found to be 1020 nM; in assay [2], 5060 nM; in assay [3], 736 nM; in assay [4], 6790 nM; in assay [5], 2.7 nM; in assay [6], 12000 nM.
Consider `CN(c1ccc(F)c2ncccc12)[C@H]1CCN(CC(=O)N2C[C@@H](F)C[C@H]2C#N)C1` [Example 158, (2S,4S)-4-fluoro-1-(2-((S)-3-((8-fluoroquinolin-5-yl)(methyl)amino)pyrrolidin-1-yl)acetyl)pyrrolidine-2-carbonitrile], for which the IC50 worked out at 1720 nM in assay [1]; 4900 nM in assay [2]; 2090 nM in assay [3]; 3370 nM in assay [4]; 4 nM in assay [5]; 8620 nM in assay [6].
Turning to `CN(c1ccc(C(F)(F)F)c2ncccc12)[C@H]1CCN(CC(=O)N2C[C@@H](F)C[C@H]2C#N)C1` [Example 159, (2S,4S)-4-fluoro-1-[2-[(3S)-3-[methyl-[8-(trifluoromethyl)-5-quinolyl]amino]pyrrolidin-1-yl]acetyl]pyrrolidine-2-carbonitrile], the IC50 came out at 430 nM in assay [1]; 61 nM in assay [2]; 1860 nM in assay [3]; 3700 nM in assay [4]; 6.7 nM in assay [5]; 7590 nM in assay [6].
Turning to `N#C[C@@H]1C[C@H](F)CN1C(=O)CN1CC[C@H](Nc2ccc(F)c3ncccc23)C1` [Example 264, (2S,4S)-4-fluoro-1-[2-[(3S)-3-[(8-fluoro-5-quinolyl)amino]pyrrolidin-1-yl]acetyl]pyrrolidine-2-carbonitrile], the IC50 in assay [2] is 2270 nM; in assay [3], 1040 nM; in assay [7] it was 1.3 nM; in assay [5] it was 2.4 nM; in assay [6] it was 3600 nM.
`N#C[C@@H]1C[C@H](F)CN1C(=O)CN1CCC(Oc2cc(C(F)(F)F)nc3ccc(F)cc23)CC1` [Example 413, (2S,4S)-4-fluoro-1-[2-[4-[[6-fluoro-2-(trifluoromethyl)-4-quinolyl]oxy]-1-piperidyl]acetyl]pyrrolidine-2-carbonitrile]: the IC50 in assay [1] is 26500 nM; in assay [2], over 100000 nM; in assay [3] it was over 10000 nM; in assay [4], over 100000 nM; in assay [7], 3 nM; in assay [6] it was 18200 nM.
Regarding `COc1ccc2nc(C(F)(F)F)cc(OC3CCN(CC(=O)N4C[C@@H](F)C[C@H]4C#N)CC3)c2c1` [Example 414, (2S,4S)-4-fluoro-1-[2-[4-[[6-methoxy-2-(trifluoromethyl)-4-quinolyl]oxy]-1-piperidyl]acetyl]pyrrolidine-2-carbonitrile], the half-inhibitory concentration (IC50) in assay [1] is 57500 nM; in assay [2], 8740 nM; in assay [3], over 10000 nM; in assay [4] it was over 100000 nM; in assay [7] it was 4.3 nM; in assay [6], 44000 nM.
As to `COc1cccc2c(OC3CCN(CC(=O)N4C[C@@H](F)C[C@H]4C#N)CC3)cc(C(F)(F)F)nc12` [Example 415, (2S,4S)-4-fluoro-1-[2-[4-[[8-methoxy-2-(trifluoromethyl)-4-quinolyl]oxy]-1-piperidyl]acetyl]pyrrolidine-2-carbonitrile], the IC50 in assay [1] is 1410 nM; in assay [2] it was 13500 nM; in assay [3], over 10000 nM; in assay [4], 39400 nM; in assay [7] it was 6.4 nM; in assay [6] it was 16500 nM.
`N#C[C@@H]1C[C@H](F)CN1C(=O)CN1CCC(Oc2nccc3ccccc23)CC1` [Example 419, (2S,4S)-4-fluoro-1-[2-[4-(1-isoquinolyloxy)-1-piperidyl]acetyl]pyrrolidine-2-carbonitrile]: the IC50 in assay [1] is 1100 nM; in assay [2], 2020 nM; in assay [3] it was over 10000 nM; in assay [4], 23000 nM; in assay [7] it was 8.1 nM; in assay [6], 9390 nM.
Consider `N#C[C@@H]1C[C@H](F)CN1C(=O)CN1CCC(Oc2cncc3ccccc23)CC1` [Example 420, (2S,4S)-4-fluoro-1-[2-[4-(4-isoquinolyloxy)-1-piperidyl]acetyl]pyrrolidine-2-carbonitrile], for which the 50% inhibitory concentration (IC50) in assay [1] was 1740 nM; in assay [2] it was 2080 nM; in assay [3], over 10000 nM; in assay [4], 22100 nM; in assay [7], 7 nM; in assay [6] it was 8590 nM.
Turning to `N#C[C@@H]1C[C@H](F)CN1C(=O)CN1CCC(Oc2cccc3cnccc23)CC1` [Example 421, (2S,4S)-4-fluoro-1-[2-[4-(5-isoquinolyloxy)-1-piperidyl]acetyl]pyrrolidine-2-carbonitrile], the IC50 in assay [1] was 2610 nM; in assay [2], over 100000 nM; in assay [3], 7530 nM; in assay [4], 4160 nM; in assay [7] it was 2.5 nM; in assay [6], 1580 nM.
On to `N#C[C@@H]1C[C@H](F)CN1C(=O)CN1CCC(Oc2ccc3cnccc3c2)CC1` [Example 422, (2S,4S)-4-fluoro-1-[2-[4-(6-isoquinolyloxy)-1-piperidyl]acetyl]pyrrolidine-2-carbonitrile], for which the IC50 in assay [1] is 1410 nM; in assay [2] it was 1220 nM; in assay [3], over 10000 nM; in assay [4], 10300 nM; in assay [7], 11.4 nM; in assay [6] it was 6420 nM.
For `N#C[C@@H]1C[C@H](F)CN1C(=O)CN1CCC(Oc2ccc3ccncc3c2)CC1` [Example 423, (2S,4S)-4-fluoro-1-[2-[4-(7-isoquinolyloxy)-1-piperidyl]acetyl]pyrrolidine-2-carbonitrile], the concentration for half-maximal inhibition (IC50) in assay [1] turned out to be 990 nM; in assay [2], 2050 nM; in assay [3] it was 8990 nM; in assay [4] it was 9330 nM; in assay [7] it was 9.3 nM; in assay [6] it was 3460 nM.
